Structures can show the parent of a compound that is named as a salt.
What was measured:
HIV-1 virus = experiment: In vitro anti-HIV activity, XTT/formazan cell viability protection (NCI, method of Gustafson et al.); assay type: cell-based, HIV-1 (human lymphoblastoid cells); conditions: Human immunodeficiency virus 1, 168 h; Table 3; 7 days; PSL values normalized to SPI content
Description: A number of formulations of SPI and PSLs were prepared and their in vitro anti-HIV activity determined by the National Cancer Institute at the National Institutes of Health, Bethesda, Md., using the method of Gustafson et al, J. Nat. Can. Inst., 81(16), 1254-1258 (1989). Varying concentrations of each formulation were mixed with cultured human lymphoblastoid cells, then cocultivated with host cells chronically infected with HIV-1 virus at 37° C. After 7 days, the cell culture is incubated with a mixture of tetrazolium salt XTT and phenazine methylsulfate for 4 hours. […] Formazan absorbs visible light at 450 nm. Therefore, the amount of formazan produced is a direct measurement of cell viability and, consequently, an estimate of the anti-HIV activity of each formulation. Formazan production in normal, uninfected cells is labelled as control.
In particular, the following compositions were assayed for anti-HIV activity. The data and effective concentration (ED50), i.e., the minimum concentration that protects 50% of the cells against infection, of each composition are summarized in FIGS. 5-7 and the results summarized in Table 3. Control values were obtained by incubating lymphoblastoid cells with each formulation in the absence of HIV. […]

[1] = Surface tension / critical micelle concentration (Fisher Scientific Surface Tensiometer); assay type: physicochemical
Description: The surface activity of SPI also was determined. In this test, dilutions of SPI were prepared and the surface tension of each solution measured using a Fisher Scientific Surface Tensiometer. The critical micelle concentration (CMC) of SPI was estimated as the minimum concentration at which the surface tension remains constant. For SPI, the CMC is about 0.10 mg/mL. […] Accordingly, the addition of sulfate groups to PI alters its aqueous behavior, shifting the tendency of the phospholipid from forming vesicles to forming micelles.

Molecule | EC50 (HIV-1 virus) [µg/mL] | behavior on addition of water (in words) [1] | surface activity (in words) ([1]; surface tension measurements, compared with SPI)
CC(C)Nc1cccnc1N1CCN(C(=O)c2cc3cc(NS(C)(=O)=O)ccc3[nH]2)CC1 [Delaviridine, Delaviridine mesylate, reference compound] | 0.031 |  | 
phosphatidylinositol [PI] |  | formation of phosphatidylinositol liposomes | no similar surface activity
